The mortality is the percentage killed. One may read the melting point as the temperature, or range, at which the solid turns liquid.

The subject of data set [1] is Euschistus heros (Neotropical Brown Stink Bug). The data set can be described thus: Euschistus heros N2 nymphs on soybean leaves. The following applies: 120 h, application rate of 200 ppm, 5 days after infestation, read-out: effect in at least one of the two categories (mortality or growth inhibition). The data set is classed as in vivo.
The test system of data set [2] is Frankliniella occidentalis (Western Flower Thrips). The data set can be described thus: Frankliniella occidentalis feeding/contact activity, sunflower leaf discs. Format: in vivo. The settings on record: foliar, 168 h, application rate of 200 ppm, population of mixed ages, 7 days after infestation. Here is the method:
Example B4: Frankliniella occidentalis (Western Flower Thrips): Feeding/Contact Activity
Sunflower leaf discs were placed on agar in 24-well microtiter plates and sprayed with aqueous test solutions prepared from […] stock solutions. After drying the leaf discs were infested with a Frankliniella population of mixed ages. The samples were assessed for mortality 7 days after infestation.

For data set [3], the system named is Myzus persicae (Green Peach Aphid). As to the kind of experiment: Myzus persicae feeding/contact activity, sunflower leaf discs. Format: in vivo. The following applies: foliar, 144 h, application rate of 200 ppm, feeding/contact, population of mixed ages, 6 days after infestation, read-out: mortality. As for the experimental part:
Example B5: Myzus persicae (Green Peach Aphid): Feeding/Contact Activity
Sunflower leaf discs were placed onto agar in a 24-well microtiter plate and sprayed with aqueous test solutions prepared from 10′000 ppm DMSO stock solutions. After drying, the leaf discs were infested with an aphid population of mixed ages. The samples were assessed for mortality 6 days after infestation.

Data set [4] has the same test system. As to the kind of experiment: Myzus persicae systemic activity, pea seedlings. Format: in vivo. The following applies: 144 h, test rate of 24 ppm, 6 days after placing seedlings into test solutions.
The test system of data set [5] is Plutella xylostella (Diamond Back Moth). The data set can be described thus: Plutella xylostella L2 larvae on artificial diet. The data set is classed as in vivo. The following applies: 120 h, application rate of 200 ppm, L2 larvae, 5 days after infestation, read-out: effect in at least one of the two categories (mortality or growth inhibition). Here is the method: Example B7: Plutella xylostella (Diamond Back Moth)
24-well microtiter plates with artificial diet were treated with aqueous test solutions prepared from 10′000 ppm DMSO stock solutions by pipetting. After drying, the plates were infested with L2 larvae (10 to 15 per well). The samples were assessed for mortality and growth inhibition in comparison to untreated samples 5 days after infestation.

Data set [6] concerns Spodoptera littoralis (Egyqptian Cotton Leaf Worm). As to the kind of experiment: Spodoptera littoralis L1 larvae on sprayed cotton leaf discs. Format: in vivo. The settings on record: foliar, 72 h, application rate of 200 ppm, L1 larvae, 3 days after infestation, read-out: control (mortality, anti-feeding effect, growth inhibition). Here is the method: Example B8: Spodoptera littoralis (Egyqptian Cotton Leaf Worm)
Cotton leaf discs were placed onto agar in 24-well microtiter plates and sprayed with aqueous test solutions prepared from 10′000 ppm DMSO stock solutions. After drying the leaf discs were infested with five L1 larvae. The samples were assessed for mortality, anti-feeding effect, and growth inhibition in comparison to untreated samples 3 days after infestation. Control of Spodoptera littoralis by a test sample is given when at least one of the categories mortality, anti-feedant effect, and growth inhibition is higher than the untreated sample.

The test system of data set [7] is Tetranychus urticae (Two-Spotted Spider Mite). The data set can be described thus: Tetranychus urticae feeding/contact activity, bean leaf discs. The data set is classed as in vivo. The following applies: foliar, 192 h, application rate of 200 ppm, mixed population (mobile stages), 8 days after infestation. Here is the method: Example B10: Tetranychus urticae (Two-Spotted Spider Mite): Feeding/Contact Activity
Bean leaf discs on agar in 24-well microtiter plates were sprayed with aqueous test solutions prepared from 10′000 ppm DMSO stock solutions. After drying the leaf discs were infested with a mite population of mixed ages. The samples were assessed for mortality on mixed population (mobile stages) 8 days after infestation.

The test system of data set [8] is Bemisia tabaci (Cotton White Fly). The data set can be described thus: Bemisia tabaci feeding/contact activity, cotton leaf discs. The data set is classed as in vivo. The settings on record: foliar, 144 h, application rate of 200 ppm, adult white flies, 6 days after incubation. As for the experimental part: Example B1: Bemisia tabaci (Cotton White Fly): Feeding/Contact Activity
Cotton leaf discs were placed on agar in 24-well microtiter plates and sprayed with aqueous test solutions prepared from 10′000 ppm DMSO stock solutions. After drying the leaf discs were infested with adult white flies. The samples were checked for mortality 6 days after incubation.

For data set [9], the system named is Diabrotica Balteata (Corn Root Worm). The data set can be described thus: Diabrotica balteata L2 larvae on maize sprouts. The settings on record: 96 h, application rate of 200 ppm, L2 larvae, 4 days after infestation, read-out: effect in at least one of the two categories (mortality or growth inhibition). The data set is classed as in vivo. Here is the method:
Example B2: Diabrotica Balteata (Corn Root Worm)
Maize sprouts placed onto an agar layer in 24-well microtiter plates were treated with aqueous test solutions prepared from 10′000 ppm DMSO stock solutions by spraying. After drying, the plates were infested with L2 larvae (6 to 10 per well). The samples were assessed for mortality and growth inhibition in comparison to untreated samples 4 days after infestation.

In data set [10] the test system is Thrips tabaci (Onion Thrips). As to the kind of experiment: Thrips tabaci feeding/contact activity, sunflower leaf discs. The following applies: foliar, 144 h, application rate of 200 ppm, population of mixed ages, 6 days after infestation. The data set is classed as in vivo. As for the experimental part: Example B11: Thrips tabaci (Onion Thrips) Feeding/Contact Activity
Sunflower leaf discs were placed on agar in 24-well microtiter plates and sprayed with aqueous test solutions prepared from 10′000 ppm DMSO stock solutions. After drying the leaf discs were infested with a thrips population of mixed ages. The samples were assessed for mortality 6 days after infestation.

For the molecule `CCS(=O)(=O)c1cc(N(C)C(=O)C2CC2)cnc1-c1nnc(-c2cc(C(F)(F)F)ccn2)n1C` [A7, N-[5-ethylsulfonyl-6-[4-methyl-5-[4-(trifluoromethyl)-2-pyridyl]-1,2,4-triazol-3-yl]-3-pyridyl]-N-methyl-cyclopropanecarboxamide], the percent effect (mortality or growth inhibition) at 200 ppm in data set [1] and in data set [5] was ≥ 80% each time. The mortality at 200 ppm in data set [2] and in [3] was ≥ 80% throughout. Also, in data set [4], the mortality at 24 ppm is ≥ 80%.
`CCS(=O)(=O)c1cc(C(=O)NC2(C#N)CC2)cnc1-c1nnc(-c2cc(C(F)(F)F)ccn2)n1C` [A23, N-(1-cyanocyclopropyl)-5-ethylsulfonyl-6-[4-methyl-5-[4-(trifluoromethyl)-2-pyridyl]-1,2,4-triazol-3-yl]pyridine-3-carboxamide] registered a melting point of 211 to 213 °C.
In the case of `CCS(=O)(=O)c1cc(NC2CC2)cnc1-c1nnc(-c2cc(C(F)(F)F)ccn2)n1C` [A9, N-cyclopropyl-5-ethylsulfonyl-6-[4-methyl-5-[4-(trifluoromethyl)-2-pyridyl]-1,2,4-triazol-3-yl]pyridin-3-amine], the percent effect (mortality or growth inhibition) at 200 ppm in data set [1] is ≥ 80%. In addition, the mortality at 200 ppm in data set [3], in [6] and in [7] was ≥ 80% in each case. In [4], the mortality at 24 ppm is ≥ 80%.
`CCS(=O)(=O)c1cc(Br)c(N)nc1-c1nnc(-c2cc(C(F)(F)F)ccn2)n1C` [A43]: the mortality at 200 ppm in data set [8], in data set [3], in data set [6] and in data set [10] was ≥ 80% throughout. The percent effect (mortality or growth inhibition) at 200 ppm in data set [9] and in [5] was ≥ 80% throughout. Moreover, the mortality at 24 ppm in data set [4] was ≥ 80%.
Turning to `CCS(=O)(=O)c1cc(C(=O)NCC#N)cnc1-c1nnc(-c2cc(C(F)(F)F)ccn2)n1C` [A26, N-(cyanomethyl)-5-ethylsulfonyl-6-[4-methyl-5-[4-(trifluoromethyl)-2-pyridyl]-1,2,4-triazol-3-yl]pyridine-3-carboxamide], the mortality at 200 ppm in [3] and in data set [7] was ≥ 80% throughout. Further, the mortality at 24 ppm in data set [4] is ≥ 80%.
Consider `CCS(=O)(=O)c1ccc(NC(=O)C2CC2)nc1-c1nnc(-c2cc(C(F)(F)F)ccn2)n1C` [A6, N-[5-ethylsulfonyl-6-[4-methyl-5-[4-(trifluoromethyl)-2-pyridyl]-1,2,4-triazol-3-yl]-2-pyridyl]cyclopropanecarboxamide], for which the mortality at 200 ppm in data set [2] and in data set [3] was ≥ 80% each time. The mortality at 24 ppm in [4] is ≥ 80%.
In turn, `CCS(=O)(=O)c1cc(NS(C)(=O)=O)cnc1-c1nnc(-c2cc(C(F)(F)F)ccn2)n1C` [A14, N-[5-ethylsulfonyl-6-[4-methyl-5-[4-(trifluoromethyl)-2-pyridyl]-1,2,4-triazol-3-yl]-3-pyridyl]methanesulfonamide] had a melting point of 228 to 230 °C.
As for `CCS(=O)(=O)c1cc(N(C)N)cnc1-c1nnc(-c2cc(C(F)(F)F)ccn2)n1C` [A30, 1-[5-ethylsulfonyl-6-[4-methyl-5-[4-(trifluoromethyl)-2-pyridyl]-1,2,4-triazol-3-yl]-3-pyridyl]-1-methyl-hydrazine], the percent effect (mortality or growth inhibition) at 200 ppm in [1] was ≥ 80%. Besides, the mortality at 200 ppm in data set [3] is ≥ 80%.
Regarding `CCS(=O)(=O)c1cc(C(=O)NC2CC2)cnc1-c1nnc(-c2cc(C(F)(F)F)ccn2)n1C` [A18, N-cyclopropyl-5-ethylsulfonyl-6-[4-methyl-5-[4-(trifluoromethyl)-2-pyridyl]-1,2,4-triazol-3-yl]pyridine-3-carboxamide], the mortality at 24 ppm in [4] was ≥ 80%. Further, the mortality at 200 ppm in data set [7] was ≥ 80%.
Regarding `CCS(=O)(=O)c1ccc(N)nc1-c1nnc(-c2cc(C(F)(F)F)ccn2)n1C` [A36, 5-ethylsulfonyl-6-[4-methyl-5-[4-(trifluoromethyl)-2-pyridyl]-1,2,4-triazol-3-yl]pyridin-2-amine], the percent effect (mortality or growth inhibition) at 200 ppm in [1] was ≥ 80%. Besides, in [3], the mortality at 200 ppm was ≥ 80%. Moreover, the mortality at 24 ppm in data set [4] is ≥ 80%.
Consider `CCS(=O)(=O)c1cc(Cl)c(N)nc1-c1nnc(-c2cc(C(F)(F)F)ccn2)n1C` [A42, 3-chloro-5-ethylsulfonyl-6-[4-methyl-5-[4-(trifluoromethyl)-2-pyridyl]-1,2,4-triazol-3-yl]pyridin-2-amine], for which the mortality at 200 ppm in data set [8], in [3], in data set [6] and in [10] was ≥ 80% each time. For the same molecule, the percent effect (mortality or growth inhibition) at 200 ppm in data set [9] and in [5] was ≥ 80% in each case. Moreover, the mortality at 24 ppm in data set [4] was ≥ 80%.
In the case of `CCS(=O)(=O)c1ccc(NC(=O)OC(C)(C)C)nc1-c1nnc(-c2cc(C(F)(F)F)ccn2)n1C` [A37, tert-butyl N-[5-ethylsulfonyl-6-[4-methyl-5-[4-(trifluoromethyl)-2-pyridyl]-1,2,4-triazol-3-yl]-2-pyridyl]carbamate], the mortality at 200 ppm in [2] and in [6] was ≥ 80% each time. The mortality at 24 ppm in data set [4] was ≥ 80%. In addition, in data set [5], the percent effect (mortality or growth inhibition) at 200 ppm was ≥ 80%.
As to `CCS(=O)(=O)c1cc(NC(=O)C2CC2)cnc1-c1nnc(-c2cc(C(F)(F)F)ccn2)n1C` [A2, N-[5-ethylsulfonyl-6-[4-methyl-5-[4-(trifluoromethyl)-2-pyridyl]-1,2,4-triazol-3-yl]-3-pyridyl]cyclopropanecarboxamide], the percent effect (mortality or growth inhibition) at 200 ppm in data set [9] was ≥ 80%. Besides, the mortality at 200 ppm in [2] and in data set [3] was ≥ 80% each time. In data set [4], the mortality at 24 ppm was ≥ 80%.
Regarding `CCS(=O)(=O)c1ccc(C(=O)N(C)C2CC2)nc1-c1nnc(-c2cc(C(F)(F)F)ccn2)n1C` [A17, N-cyclopropyl-5-ethylsulfonyl-N-methyl-6-[4-methyl-5-[4-(trifluoromethyl)-2-pyridyl]-1,2,4-triazol-3-yl]pyridine-2-carboxamide], the mortality at 200 ppm in [8] and in data set [3] was ≥ 80% in each case. For the same molecule, the mortality at 24 ppm in [4] is ≥ 80%.
For the molecule `CCS(=O)(=O)c1ccc(NCC(F)(F)F)nc1-c1nnc(-c2cc(C(F)(F)F)ccn2)n1C` [A32, 5-ethylsulfonyl-6-[4-methyl-5-[4-(trifluoromethyl)-2-pyridyl]-1,2,4-triazol-3-yl]-N-(2,2,2-trifluoroethyl)pyridin-2-amine], in data set [7], the mortality at 200 ppm is ≥ 80%.

For the origin of these results see US10556884B2, “Pesticidally active heterocyclic derivatives with sulphur containing substituents” (SYNGENTA PARTICIPATIONS AG, priority 2015, dated 2020).
